The source made the active and inactive calls. The rule behind the calls is not given here.
Columns and labels:
Human alphaherpesvirus 2 [1] = experiment: Antiviral activity against HSV-2 333vhsB infected in African green monkey Vero cells assessed as inhibition of viral replication by measuring reduction in virus-induced cytopathic effect at 50 uM incubated for 20 hrs by colorimetric analysis; assay type: functional, organism-based
Human alphaherpesvirus 2 [2] = experiment: (§1) Antiviral activity against HSV-2 infected in African green monkey Vero cells assessed as inhibition of viral replication by measuring log suppression of virus-induced cytopathic effect at 5 uM incubated for 1 hr followed by washing with PBS and subsequent treatment with compound for 24 hrs by plaque assay; assay type: functional; details: time 25 hrs
Human alphaherpesvirus 2 [3] = experiment: as §1, with “1” for “5”; assay type: functional; details: time 25 hrs
Human alphaherpesvirus 2 [4] = experiment: Antiviral activity against HSV-2 infected in African green monkey Vero cells assessed as inhibition of viral replication incubated for 1 hr followed by washing with PBS and subsequent treatment with compound for 24 hrs by plaque reduction assay; assay type: functional, organism-based; details: Human alphaherpesvirus 2, Vero
[5] = Cytotoxicity against human HepDES19 cells assessed as reduction in cell viability incubated for 72 hrs by MTS assay; assay type: toxicity, cell-based; details: hepdes19, 72 h
Human alphaherpesvirus 1 [6] = experiment: as §1, with “HSV-1” for “HSV-2”; assay type: functional; details: time 25 hrs
Human alphaherpesvirus 1 [7] = experiment: as §1, with “HSV-1” for “HSV-2”, “1” for “5”; assay type: functional; details: time 25 hrs
[8] = Apparent permeability of the compound across apical to basolateral side in human Caco-2 cells at 10 uM incubated for 2 hrs; assay type: ADME, cell-based; details: caco-2, 2 h
[9] = Half life in mouse liver microsomes at 2 uM in presence of NADPH by LC/MS/MS analysis; assay type: ADME, Microsome
[10] = Half life in human liver microsomes at 2 uM in presence of NADPH by LC/MS/MS analysis; assay type: ADME, Microsome
[11] = Half-life in BALB/c mouse at 3 mg/kg, po and 1 mg/kg, iv by LC/MS/MS analysis; assay type: ADME, organism-based; details: in vivo
[12] = Oral bioavailability in BALB/c mouse at 3 mg/kg by LC/MS/MS analysis; assay type: ADME, organism-based; details: in vivo
Human alphaherpesvirus 1 [13] = experiment: Antiviral activity against HSV-1 infected in African green monkey Vero cells assessed as inhibition of viral replication incubated for 1 hr followed by washing with PBS and subsequent treatment with compound for 24 hrs by plaque reduction assay; assay type: functional, organism-based; details: Human alphaherpesvirus 1, Vero
Human alphaherpesvirus 2 [14] = experiment: Antiviral activity against wild-type HSV-2 186 infected in African green monkey Vero cells assessed as inhibition of viral replication incubated for 1 hr followed by washing with PBS and subsequent treatment with compound for 24 hrs by plaque reduction assay; assay type: functional, organism-based; details: Human alphaherpesvirus 2, 186, Vero
Human alphaherpesvirus 2 [15] = experiment: Antiviral activity against thymidine kinase-deficient ACV-resistant HSV-2 186 TKdeltakpn infected in African green monkey Vero cells assessed as inhibition of viral replication incubated for 1 hr followed by washing with PBS and subsequent treatment with compound for 24 hrs by plaque reduction assay; assay type: functional, organism-based; details: Human alphaherpesvirus 2, 186 TKdeltakpn
Vero = experiment: Cytotoxicity against African green monkey Vero cells assessed as reduction in cell viability incubated for 24 hrs by MTS assay; details: chlorocebus sabaeus

Row | Compound | Activity (Human alphaherpesvirus 2 [1]) | log(activity) (Human alphaherpesvirus 2 [2]) | log(activity) (Human alphaherpesvirus 2 [3]) | EC50 (Human alphaherpesvirus 2 [4]) [µM] | CC50 [5] [µM] | also measured
1 | O=c1cc(-c2ccccc2)ccn1O | Active | 0.02 | 0.05 | – | – | –
2 | O=c1cc(C2CCCCC2)ccn1O | Active | 0.04 | 0.2 | – | – | –
3 | O=c1cccc(C2CCCCC2)n1O | Active | 5.01 | 1.23 | 0.55 | 22 | –
4 | Cc1cc(Cc2ccc(OCc3ccccc3)cc2)n(O)c(=O)c1 | Active | 4.25 | 4.1 | 0.13 | 19 | log(activity) (Human alphaherpesvirus 1 [6]): 5.18; log(activity) (Human alphaherpesvirus 1 [7]): 4.74; Papp [8]: 9.42 10^-7 cm/s
5 | Cc1cc(CC2CCCCC2)n(O)c(=O)c1 | Active | 4.9 | 4.19 | 0.26 | 28 | log(activity) (Human alphaherpesvirus 1 [6]): 4.43; log(activity) (Human alphaherpesvirus 1 [7]): 3.98; t1/2 [9]: < 5 min; t1/2 [10]: < 5 min; Papp [8]: 3.14 10^-5cm/s; t1/2 [11]: < 60 min; bioavailability [12]: 10%
6 | O=c1cc(Cc2ccccc2)cc(CC2CCCCC2)n1O | Active | 4.83 | 2.39 | – | – | –
7 | COc1ccccc1Cc1cc(C)cc(=O)n1O | Active | 3.9 | 1.02 | – | – | –
8 | Cc1cc(C2CCOCC2)n(O)c(=O)c1 | Active | 0.09 | -0.23 | – | – | –
9 | O=c1c2ccccc2cc(CC2CCCCC2)n1O | Active | 4.77 | 2.68 | 0.28 | 49 | log(activity) (Human alphaherpesvirus 1 [6]): 4.32; log(activity) (Human alphaherpesvirus 1 [7]): 4.16; EC50 (Human alphaherpesvirus 1 [13]): 0.24 µM
10 | O=c1cc(Cc2ccccc2)cc(Cc2ccccc2)n1O | Active | 4.7 | 0.29 | – | – | –
11 | O=c1cc(/C=C/c2ccccc2)cc(Cc2ccccc2)n1O | Active | 4.62 | 1.46 | – | – | –
12 | O=c1cc(Cc2ccccc2)ccn1O | Active | 0.03 | 0.4 | – | – | –
13 | O=c1cc(-c2ccccc2)cc(CC2CCCCC2)n1O | Active | 5.29 | 4.84 | 0.39 | 20 | t1/2 [9]: < 5 min; t1/2 [10]: < 5 min; Papp [8]: 2.75 10^-6 cm/s
14 | O=c1c2ccccc2cc(C2CCCCC2)n1O | Active | 4.48 | 1.01 | – | – | –
15 | Cc1cc(Cc2ccc(Cl)cc2)n(O)c(=O)c1 | Active | 4.4 | 3.16 | 0.31 | 26 | log(activity) (Human alphaherpesvirus 1 [6]): 4.27; log(activity) (Human alphaherpesvirus 1 [7]): 2.44; EC50 (Human alphaherpesvirus 1 [13]): 0.16 µM; t1/2 [11]: < 60 min; bioavailability [12]: 10%
16 | Cc1cc(Cc2ccccc2-c2ccccc2)n(O)c(=O)c1 | Active | 4.49 | 3.17 | 0.16 | 14 | t1/2 [9]: < 5 min; t1/2 [10]: < 5 min; Papp [8]: 2.03 10^-7 cm/s
17 | COc1ccc(Cc2cc(C)cc(=O)n2O)cc1 | Active | 4.04 | 1.23 | – | – | –
18 | Cc1cc(C2CCC2)n(O)c(=O)c1 | Active | 1.45 | 0.26 | – | – | –
19 | Cc1cc(C2CCCCCC2)n(O)c(=O)c1 | Active | 5.09 | 4.15 | 0.16 | 18 | log(activity) (Human alphaherpesvirus 1 [6]): 5.27; log(activity) (Human alphaherpesvirus 1 [7]): 4.67; EC50 (Human alphaherpesvirus 1 [13]): 0.06 µM; t1/2 [9]: 8 min; t1/2 [10]: < 5 min; Papp [8]: 5.74 10^-6 cm/s
20 | O=c1cccc(Cc2ccccc2)n1O | Active | 2.75 | 0.34 | – | – | –
21 | Cc1cc(Cc2ccccc2Cl)n(O)c(=O)c1 | Active | 4.3 | 2.46 | – | – | –

Row | Compound | Activity (Human alphaherpesvirus 2 [1]) | log(activity) (Human alphaherpesvirus 2 [2]) | log(activity) (Human alphaherpesvirus 2 [3]) | EC50 (Human alphaherpesvirus 2 [4]) [µM] | CC50 [5] [µM] | also measured
22 | Cc1cc(C2CCN(C(=O)C(C)C)CC2)n(O)c(=O)c1 | Active | 0.4 | -0.08 | – | – | –
23 | Cc1cc2ccccc2c(=O)n1O | Active | 0.28 | 0.01 | – | – | –
24 | Cc1cc(Cc2cccc(-c3ccccc3)c2)n(O)c(=O)c1 | Active | 4.2 | 4.22 | 0.39 | 24 | t1/2 [9]: < 5 min; t1/2 [10]: < 5 min; Papp [8]: 1.09 10^-6 cm/s
25 | O=c1ccc(Cc2ccccc2)cn1O | Active | -0.03 | 0.1 | – | – | –
26 | Cc1cc(Cc2cccc(OCc3ccccc3)c2)n(O)c(=O)c1 | Active | 4.4 | 4.04 | 0.22 | 22 | t1/2 [9]: < 5 min; t1/2 [10]: < 5 min; Papp [8]: 1.37 10^-6 cm/s
27 | O=c1ccc(-c2ccccc2)cn1O [1-HYDROXY-5-PHENYLPYRIDIN-2(1H)-ONE] | Active | 0 | -0.03 | – | – | –
28 | O=c1c2ccccc2cc(-c2ccccc2)n1O | Active | 4.04 | 0.01 | – | – | –
29 | Cc1ccccc1-c1cc(CC2CCCCC2)n(O)c(=O)c1 | Active | 5.65 | 0.14 | – | – | –
30 | O=c1cc(-c2ccccc2)cc(C2CCCCC2)n1O | Active | 4.08 | 3.73 | 0.29 | 20 | log(activity) (Human alphaherpesvirus 1 [6]): 5.37; log(activity) (Human alphaherpesvirus 1 [7]): 3.43; EC50 (Human alphaherpesvirus 2 [14]): < 0.3 µM; EC50 (Human alphaherpesvirus 2 [15]): < 0.3 µM; t1/2 [9]: < 5 min; t1/2 [10]: < 5 min; Papp [8]: 4.33 10^-6 cm/s; t1/2 [11]: < 60 min; bioavailability [12]: 10%
31 | Nc1nc2c(ncn2COCCO)c(=O)[nH]1 [ACYCLOVIR] | – | 2.9 | 1.79 | – | – | log(activity) (Human alphaherpesvirus 1 [6]): 3.36; log(activity) (Human alphaherpesvirus 1 [7]): 2.42
32 | Cc1cc(C2CCCC2)n(O)c(=O)c1 | Active | 2.38 | 0.37 | – | – | –
33 | COc1cccc(Cc2cc(C)cc(=O)n2O)c1 | Active | 4.57 | 2.15 | 0.27 | 60 | CC50 (Vero): > 100 µM; t1/2 [9]: 15 min; t1/2 [10]: 19 min; Papp [8]: 2.43 10^-7 cm/s
34 | Cc1cccc(-c2cc(CC3CCCCC3)n(O)c(=O)c2)c1 | Active | 3.95 | 3.26 | 0.31 | 16 | log(activity) (Human alphaherpesvirus 1 [6]): 4.59; log(activity) (Human alphaherpesvirus 1 [7]): 4.22
35 | Cc1ccc(-c2cc(CC3CCCCC3)n(O)c(=O)c2)cc1 | Active | 0.34 | 0.02 | – | – | –
36 | O=c1ccc(C2CCCCC2)cn1O | Active | 3.62 | 0.67 | – | – | –
37 | O=c1c2ccccc2cc(Cc2ccccc2)n1O | Active | 4.03 | 0.73 | – | – | –
38 | Cc1cc(Cc2ccccc2)n(O)c(=O)c1 | Active | 5.79 | 1.59 | 0.23 | 42 | log(activity) (Human alphaherpesvirus 1 [6]): 4.71; log(activity) (Human alphaherpesvirus 1 [7]): 1.07; CC50 (Vero): > 100 µM; t1/2 [9]: < 5 min; t1/2 [10]: 6 min; Papp [8]: 1.44 10^-5cm/s
39 | O=c1cc(-c2ccccc2)cc(Cc2ccccc2)n1O | Active | 5.29 | 2.72 | 0.41 | 18 | –
40 | Cc1cc(Cc2ccc3ccccc3c2)n(O)c(=O)c1 | Active | 3.63 | 1.34 | – | – | –
41 | O=c1cc(/C=C/c2ccccc2)cc(CC2CCCCC2)n1O | Active | 4.77 | 4.95 | 0.27 | 20 | log(activity) (Human alphaherpesvirus 1 [6]): 4.42; log(activity) (Human alphaherpesvirus 1 [7]): 4.33
42 | Cc1cc(Cc2cccc(Cl)c2)n(O)c(=O)c1 | Active | 4 | 1.82 | – | – | –

From ChEMBL document CHEMBL5137030 (Eur J Med Chem, 2022)
